Here are results for 41 compounds from patent US7846963B2, “2-oxo-heterocyclic compounds and the pharmaceutical compositions comprising the same” (Korea Research Institute of Bioscience and Biotechnology, priority 2003, dated 2010).

SMILES strings stand for the structures.

The subject of the test is production of TNF-alpha in RAW 264.7 cells. In words: Inhibition of TNF-alpha production in LPS-treated RAW 264.7 cells, ELISA of culture supernatant. Format: cell-based, mouse. Particulars: Mus musculus, RAW264.7, Table 23, LPS 0.3 μg/ml, 24 hours, compounds up to 10 μM, IC50 unit inferred. The method, then: To test the inhibiting activity of the compounds prepared from above Examples on the production of TNF-alpha, the concentration of TNF-alpha in the cell supernatant was measured.
Each 200 μl of RAW 264.7 cells (ATCC, USA), a mouse macrophage cell line was seeded onto each well of 96-well microtiter plate (Nunc, Sweden) to the concentration ranging from 1×10^6 cells/ml to 5×10^6 cells/ml, and incubated in DMEM (Dulbeco's modified eagles medium) media containing 5% FBS (fetal bovine serum) at 37° C. in 5% CO2 incubator.
Various concentrations of the compounds of the present invention ranging from […] to 10 μM and LPS (Sigma, USA) in the final concentration of 0.3 μg/ml were treated to activated cell simultaneously. The treated cells were cultured at 37° C. for 24 hours in 5% CO2 incubator and the cultured cells were collected after the cultivation
And then the concentration of TNF-alpha secreted from the culture supernatant of RAW 264.7 cells was determined by ELISA according to the manufacture's instruction (R&D Systems, Minneapolis, Minn.).
The result was shown in Table 23 (AA: IC50's<1, A: IC50's<5, B: IC50's<10, C: IC50's>10).
By IC50 is commonly meant the concentration that inhibits the measured activity by half. A low value points to inhibition by little substance. `CN1CC=C(CCC(=O)NO)C1=O` [Example 50, N-hydroxy-3-(1-methyl-2-oxo-2,5-dihydro-1H-pyrrol-3-yl)-propionamide] displayed an IC50 of more than 10 µM.

In turn, `C=CCN1CC=C(CCC(=O)NO)C1=O` [Example 51, 3-(1-allyl-2-oxo-2,5-dihydro-1H-pyrrol-3-yl)-N-hydroxy-propionamide] displayed an IC50 of more than 10 µM.

On to `O=C(CCC1=CCN(CCc2cccc3ccccc23)C1=O)NO` [Example 52, N-hydroxy-3-[1-(2-naphthalene-1-yl-ethyl)-2-oxo-2,5-dihydro-1H-pyrrol-3-yl]-propionamide], for which the IC50 was less than 5 µM.

For `O=C(CCC1=CCN(CCc2ccc3ccccc3c2)C1=O)NO` [Example 53, N-hydroxy-3-[1-(2-naphthalene-2-yl-ethyl)-2-oxo-2,5-dihydro-1H-pyrrol-3-yl]-propionamide], the IC50 is less than 1 µM.

On to `O=C(CCC1=CCN(CCc2cccs2)C1=O)NO` [Example 54, N-hydroxy-3-[2-oxo-1-(2-thiophen-2-yl-ethyl)-2,5-dihydro-1H-pyrrol-3-yl]-propionamide], for which the IC50 is less than 5 µM.

`O=C(CCC1=CCN(CCCc2ccc(-c3ccccc3)cc2)C1=O)NO` [Example 55, 3-[1-(3-biphenyl-4-yl-propyl)-2-oxo-2,5-dihydro-1H-pyrrol-3-yl]-N-hydroxy-propionamide] registered an IC50 of less than 5 µM.

Take `COc1ccc(CN2CCC=C(CCC(=O)NO)C2=O)c(OC)c1` [Example 57, 3-[1-(2,4-Dimethoxybenzyl)-2-oxo-1,2,5,6-tetrahydropyridin-3-yl]N-hydroxypropionamide]: the IC50 was less than 10 µM.

The compound `O=C(CCC1=CCCN(Cc2ccccc2)C1=O)NO` [Example 58, N-hydroxy-3-(1-benzyl-2-oxo-1,2,5,6-tetrahydro-pyridin-3-yl)-propionic acid] registered a half-maximal inhibitory concentration (IC50) of less than 5 µM.

In turn, `O=C(CCC1=CCCN(Cc2ccc([N+](=O)[O-])cc2)C1=O)NO` [Example 59, N-hydroxy-3-[1-(4-nitro-benzyl)-2-oxo-1,2,5,6-tetrahydro-pyridin-3-yl)-propionamide] came in with an IC50 of less than 5 µM.

As for `O=C(CCC1=CCCN(CCc2ccccc2)C1=O)NO` [Example 60], the half-maximal inhibitory concentration (IC50) was less than 5 µM.

For the compound `COc1ccc(CN2CCC=C(CCC(=O)O)C2=O)c(OC)c1` [Example 63, 3-[1-(2,4-dimethoxybenzyl)-2-oxo-1,2,5,6-tetrahydro-pyridin-3-yl]-propionic acid], the 50% inhibitory concentration (IC50) was more than 10 µM.

`O=C(O)CCC1=CCCN(Cc2ccccc2)C1=O` [Example 64, 3-(1-benzyl-2-oxo-1,2,5,6-tetrahydro-pyridin-3-yl)-propionic acid] registered an IC50 of more than 10 µM.

`O=C(O)CCC1=CCCN(Cc2ccc([N+](=O)[O-])cc2)C1=O` [Example 65, 3-[1-(4-nitro-benzyl)-2-oxo-1,2,5,6-tetrahydro-pyridin-3-yl)-propionic acid] came in with an IC50 of more than 10 µM.

With `CC(=O)Nc1ccc(CN2CCC=C(CCC(=O)NO)C2=O)cc1` [Example 74, 3-[1-(4-acetylamino-benzyl)-2-oxo-1,2,5,6-tetrahydro-pyridin-3-yl]-N-hydroxy-propionamide], the IC50 was more than 10 µM.

`O=C(CCC1=CCCN(Cc2ccc(NC(=O)c3ccccc3)cc2)C1=O)NO` [Example 75, N-4-[5-(2-hydroxycarbamoyl-ethyl)-6-oxo-3,6-dihydro-2-pyridin-1-yl-methyl]-phenyl-benzamide]: the IC50 was more than 10 µM.

As for `CS(=O)(=O)N(c1ccc(CN2CCC=C(CCC(=O)NO)C2=O)cc1)S(C)(=O)=O` [Example 76, N-hydroxy-3-[1-(4-dimethylsulfonylamino-benzyl)-2-oxo-1,2,5,6-tetrahydro-pyridin-3-yl]-propionamide], the IC50 was more than 10 µM.

`CC(=O)Nc1ccc(CN2CCC=C(CCC(=O)O)C2=O)cc1` [Example 78, 3-[1-(4-acetylamino-benzyl)-2-oxo-1,2,5,6-tetrahydro-pyridin-3-yl]-propionic acid] gave an IC50 of less than 5 µM.

For `O=C(O)CCC1=CCCN(Cc2ccc(NC(=O)c3ccccc3)cc2)C1=O` [Example 79, 3-[1-(4-benzoylamino-benzyl)-2-oxo-1,2,5,6-tetrahydro-pyridin-3-yl]-propionic acid], the IC50 is less than 5 µM.

`Cc1ccc(S(=O)(=O)Nc2ccc(CN3CCC=C(CCC(=O)O)C3=O)cc2)cc1` [Example 80] registered an IC50 of less than 1 µM.

For `O=C(CCC1CCCN(CCc2ccccc2)C1=O)NO` (centres unmarked) [Example 81, N-hydroxy-3-(2-oxo-1-phenethyl-piperidine-3-yl)-propionamide], the half-inhibitory concentration (IC50) is less than 5 µM.

In turn, `COc1ccc(CN2CCC=C(CC(=O)NO)C2=O)c(OC)c1` [Example 82, 2-[1-(2,4-dimethoxy-benzyl)-2-oxo-1,2,5,6-tetrahydro-pyridin-3-yl]-N-hydroxy-acetamide] had an IC50 of less than 5 µM.

With `O=C(CC1=CCCN(Cc2ccccc2)C1=O)NO` [Example 83, 2-(1-benzyl-2-oxo-1,2,5,6-tetrahydro-pyridin-3-yl)-N-hydroxy-acetamide], the IC50 was less than 5 µM.

Turning to `O=C(CC1=CCCN(Cc2ccc([N+](=O)[O-])cc2)C1=O)NO` [Example 84, N-hydroxy-2-[1-(4-nitro-benzyl)-2-oxo-1,2,5,6-tetrahydro-pyridin-3-yl)-N-hydroxy-acetamide], the IC50 was less than 5 µM.

With `O=C(CC1=CCCN(CCCc2ccccc2)C1=O)NO` [Example 85, N-hydroxy-2-[2-oxo-1-(3-phenyl-propyl)-1,2,5,6-tetrahydro-pyridin-3-yl]-N-hydroxy-acetamide], the IC50 is less than 10 µM.

Regarding `O=C(CC1=CCCN(CCCCc2ccccc2)C1=O)NO` [Example 86, N-hydroxy-2-[2-oxo-1-(4-phenyl-butyl)-1,2,5,6-tetrahydro-pyridin-3-yl]-N-hydroxy-acetamide], the IC50 was less than 5 µM.

`COc1ccc(CN2CCC=C(CC(=O)O)C2=O)c(OC)c1` [Example 87, [1-(2,4-dimethoxy-benzyl)-2-oxo-1,2,5,6-tetrahydro-pyridin-3-yl]-acetic acid] displayed an IC50 of less than 1 µM.

Compound `O=C(O)CC1=CCCN(Cc2ccccc2)C1=O` [Example 88, (1-benzyl-2-oxo-1,2,5,6-tetrahydro-pyridin-3-yl)-acetic acid] registered an IC50 of less than 1 µM.

The compound `O=C(O)CC1=CCCN(CCc2ccccc2)C1=O` [Example 89, (2-oxo-1-phenethyl-1,2,5,6-tetrahydro-pyridin-3-yl)-acetic acid] gave a 50% inhibitory concentration (IC50) of less than 5 µM.

`O=C(O)CC1=CCCN(CCCCc2ccccc2)C1=O` [Example 91, [2-oxo-1-(4-phenyl-butyl)-1,2,5,6-tetrahydro-pyridin-3-yl)-acetic acid]: the IC50 is less than 10 µM.

`COc1ccc(CN2CCCC(CC(=O)NO)C2=O)c(OC)c1` (centres unmarked) [Example 92, 2-[1-(2,4-dimethoxy-benzyl)-2-oxopiperidine-3-yl]-N-hydroxy-acetamide] registered an IC50 of less than 5 µM.

Compound `O=C(CC1CCCN(CCc2ccccc2)C1=O)NO` (centres unmarked) [Example 93, (2-oxo-1-phenethyl-piperidine-3-yl)-N-hydroxy-acetamide] displayed an IC50 of less than 5 µM.

Regarding `COc1ccc(CN2CCC=C(CCCC(=O)NO)C2=O)cc1` [Example 95, 4-[1-(4-methoxy-benzyl)-2-oxo-1,2,5,6-tetrahydro-pyridin-3-yl]-N-hydroxy-butylamide], the IC50 was less than 5 µM.

In the case of `O=C(CCCC1=CCCN(CCc2ccccc2)C1=O)NO` [Example 96, 4-(1-phenethyl-2-oxo-1,2,5,6-tetrahydro-pyridin-3-yl)-N-hydroxy-butylamide], the 50% inhibitory concentration (IC50) was less than 5 µM.

With `O=C(CCCC1=CCCN(CCCc2ccccc2)C1=O)NO` [Example 97, N-hydroxy-4-[2-oxo-1-(3-phenyl-propyl)-1,2,5,6-tetrahydro-pyridin-3-yl]-butylamide], the IC50 was less than 5 µM.

`O=C(CCCC1=CCCN(CCCCc2ccccc2)C1=O)NO` [Example 98]: the half-inhibitory concentration (IC50) was less than 5 µM.

For the compound `O=C(O)CCC1=CCCNC1=O` [Example 99, 3-(2-oxo-1,2,5,6-tetrahydro-pyridin-3-yl)-propionic acid], the IC50 was less than 10 µM.

With `O=C(CCC1=CCCNC1=O)NOCc1ccccc1` [Example 100, N-Benzyloxy-3-(2-oxo-1,2,5,6-tetrahydro-pyridin-3-yl)-propionamide], the IC50 was less than 5 µM.

Turning to `C=CCN1CCC=C(CCC(=O)NO)C1=O` [Example 101, 3-(1-Allyl-2-oxo-1,2,5,6-tetrahydro-pyridin-3-yl)-N-hydroxy-propionamide], the IC50 was less than 1 µM.

As for `CN1CCC=C(CCC(=O)NO)C1=O` [Example 102, N-hydroxy-3-(1-methyl-2-oxo-1,2,5,6-tetrahydro-pyridin-3-yl)-propionamide], the half-maximal inhibitory concentration (IC50) is less than 1 µM.

`O=C(CCC1=CCCN(Cc2ccc3ccccc3c2)C1=O)NO` [Example 103, N-hydroxy-3-(1-(naphthalene-2-yl-methyl)-2-oxo-1,2,5,6-tetrahydro-pyridin-3-yl)-propionamide]: the IC50 was less than 5 µM.

The compound `O=C(CCC1=CCCN(CCc2cccs2)C1=O)NO` [Example 104, N-hydroxy-3-[2-oxo-1-(2-thiophen-2-yl-ethyl)-1,2,5,6-tetrahydro-pyridin-3-yl]-propionamide] came in with an IC50 of more than 10 µM.
